Experimental data as given in US10464911B2, “1,3,4-oxadiazole sulfamide derivative compounds as histone deacetylase 6 inhibitor, and the pharmaceutical composition comprising the same” (Chong Kun Dang Pharmaceutical Corp., priority 2015, dated 2019).
Counter-ions that a name gives are not always drawn.

Target: human recombinant HDAC6 (Homo sapiens (Human), UniProt Q9UBN7)
Assay: HDAC6 enzyme activity inhibition assay (HDAC Fluorimetric Drug Discovery Kit)
Format: biochemical
Conditions: for HDAC6 selectivity (fold): HDAC6 versus HDAC1; for IC50: human recombinant HDAC6, same protocol as HDAC1 test
Method: In order to examine the HDAC6 selectivity of the compounds of formula I of the present invention by HDAC1 and HDAC6 enzymatic activity inhibition assays, an experiment was performed using a conventional substance as a control.
HDAC enzyme activity was measured using a HDAC Fluorimetric Drug Discovery Kit (BML-AK511, 516, Enzo Life Science). For the HDAC1 enzyme activity test, human recombinant HDAC1 (BML-SE456) was used as an enzyme source, and Fluor de Lys®-“SIRT1 (BNL-KI177) was used as a substrate. A 5-fold dilution of the compound was seeded into a 96-well plate, and then 0.3 μg of the enzyme and 10 μM of the substrate were added to each well of the plate and allowed to react at 30 for 60 minutes. Then, Fluor de Lys®-Developer II (BML-KI176) was added thereto and allowed to react for 30 minutes, after which the fluorescence value (Ex 360, Em 460) was measured using a multi-plate reader (Flexstation 3, Molecular Device). The HDAC6 enzyme was tested using human recombinant HDAC6 (382180) (Calbiochem) according to the same protocol as the HDAC1 enzyme activity test method. Based on the resulting values, each IC50 value was calculated using GraphPad Prism4.0 program.

Chain of human recombinant HDAC6 (Q9UBN7 whole entry): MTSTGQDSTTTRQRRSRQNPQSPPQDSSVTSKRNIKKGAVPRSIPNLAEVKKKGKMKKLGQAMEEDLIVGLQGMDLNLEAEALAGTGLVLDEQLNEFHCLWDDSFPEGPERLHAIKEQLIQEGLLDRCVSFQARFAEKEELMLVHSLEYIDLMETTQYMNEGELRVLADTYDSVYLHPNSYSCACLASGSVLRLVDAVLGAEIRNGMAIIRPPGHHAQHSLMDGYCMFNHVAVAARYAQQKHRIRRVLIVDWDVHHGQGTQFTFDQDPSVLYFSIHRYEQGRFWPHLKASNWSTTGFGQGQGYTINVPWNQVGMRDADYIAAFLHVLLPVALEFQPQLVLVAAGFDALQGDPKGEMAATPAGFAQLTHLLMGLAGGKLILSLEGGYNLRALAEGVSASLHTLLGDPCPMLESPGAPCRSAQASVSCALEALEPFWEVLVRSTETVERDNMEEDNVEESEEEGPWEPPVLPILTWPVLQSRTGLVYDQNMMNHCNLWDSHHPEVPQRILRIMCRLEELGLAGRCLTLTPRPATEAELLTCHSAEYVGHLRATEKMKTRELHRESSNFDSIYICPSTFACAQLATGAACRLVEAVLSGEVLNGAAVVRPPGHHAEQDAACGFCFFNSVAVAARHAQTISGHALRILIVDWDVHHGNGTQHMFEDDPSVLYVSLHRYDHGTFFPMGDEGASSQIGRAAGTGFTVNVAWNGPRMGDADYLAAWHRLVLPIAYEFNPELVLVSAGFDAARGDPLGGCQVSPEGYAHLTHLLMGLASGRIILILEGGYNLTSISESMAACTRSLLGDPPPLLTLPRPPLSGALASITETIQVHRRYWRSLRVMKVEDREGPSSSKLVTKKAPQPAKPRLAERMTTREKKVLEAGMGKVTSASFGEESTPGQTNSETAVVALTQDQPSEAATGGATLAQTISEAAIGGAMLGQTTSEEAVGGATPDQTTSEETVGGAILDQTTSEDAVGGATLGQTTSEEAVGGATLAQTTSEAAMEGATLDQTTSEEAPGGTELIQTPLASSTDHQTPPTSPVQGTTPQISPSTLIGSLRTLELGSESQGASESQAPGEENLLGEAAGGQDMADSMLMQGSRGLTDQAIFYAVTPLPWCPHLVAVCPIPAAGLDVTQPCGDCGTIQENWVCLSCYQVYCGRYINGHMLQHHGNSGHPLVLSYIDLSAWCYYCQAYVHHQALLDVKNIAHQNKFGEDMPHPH

SMILES	HDAC6 selectivity (fold)	IC50 [nM]
O=S(=O)(N1CCOCC1)N(Cc1ccc(-c2nnc(C(F)(F)F)o2)cc1)c1ccc(F)cc1 [Compound 11198, N-(4-fluorophenyl)-N-(4-(5-(trifluoromethyl)-1,3,4-oxadiazol-2-yl)benzyl)morpholine-4-sulfonamide]	738	136
O=S(=O)(N1CCOCC1)N(Cc1ccc(-c2nnc(C(F)F)o2)cc1)c1ccc(F)cc1 [Compound 11199, N-(4-(5-(difluoromethyl)-1,3,4-oxadiazol-2-yl)benzyl)-N-(4-fluorophenyl)morpholine-4-sulfonamide]	1911	52
CC(=O)N1CCN(S(=O)(=O)N(Cc2ccc(-c3nnc(C(F)(F)F)o3)cc2F)c2ccccc2)CC1 [Compound 11294, 4-acetyl-N-(2-fluoro-4-(5-(trifluoromethyl)-1,3,4-oxadiazol-2-yl)benzyl)-N-phenylpiperazine-1-sulfonamide]	1411	71
CCC(=O)N1CCN(S(=O)(=O)N(Cc2ccc(-c3nnc(C(F)(F)F)o3)cc2F)c2ccccc2)CC1 [Compound 11295, N-(2-fluoro-4-(5-(trifluoromethyl)-1,3,4-oxadiazol-2-yl)benzyl)-N-phenyl-4-propionylpiperazine-1-sulfonamide]	751	133
CC(C)C(=O)N1CCN(S(=O)(=O)N(Cc2ccc(-c3nnc(C(F)(F)F)o3)cc2F)c2ccccc2)CC1 [Compound 11296, N-(2-fluoro-4-(5-(trifluoromethyl)-1,3,4-oxadiazol-2-yl)benzyl)-4-isobutyryl-N-phenylpiperazine-1-sulfonamide]	636	157
CS(=O)(=O)N1CCN(S(=O)(=O)N(Cc2ccc(-c3nnc(C(F)(F)F)o3)cc2F)c2ccccc2)CC1 [Compound 11297, N-(2-fluoro-4-(5-(trifluoromethyl)-1,3,4-oxadiazol-2-yl)benzyl)-4-(methylsulfonyl)-N-phenylpiperazine-1-sulfonamide]	805	124
CN1CCN(S(=O)(=O)N(Cc2ccc(-c3nnc(C(F)(F)F)o3)cc2F)c2ccccc2)CC1 [Compound 11298, N-(2-fluoro-4-(5-(trifluoromethyl)-1,3,4-oxadiazol-2-yl)benzyl)-4-methyl-N-phenylpiperazine-1-sulfonamide]	1333	75
CCN1CCN(S(=O)(=O)N(Cc2ccc(-c3nnc(C(F)(F)F)o3)cc2F)c2ccccc2)CC1 [Compound 11299, 4-ethyl-N-(2-fluoro-4-(5-(trifluoromethyl)-1,3,4-oxadiazol-2-yl)benzyl)-N-phenylpiperazine-1-sulfonamide]	1169	86
CC(C)N1CCN(S(=O)(=O)N(Cc2ccc(-c3nnc(C(F)(F)F)o3)cc2F)c2ccccc2)CC1 [Compound 11300, N-(2-fluoro-4-(5-(trifluoromethyl)-1,3,4-oxadiazol-2-yl)benzyl)-4-isopropyl-N-phenylpiperazine-1-sulfonamide]	861	116
Cl.O=S(=O)(N1CCNCC1)N(Cc1ccc(-c2nnc(C(F)F)o2)cc1F)c1ccccc1 [Compound 11301, N-(4-(5-(difluoromethyl)-1,3,4-oxadiazol-2-yl)-2-fluorobenzyl)-N-phenylpiperazine-1-sulfonamide Hydrochloride]	3622	28
CC(=O)N1CCN(S(=O)(=O)N(Cc2ccc(-c3nnc(C(F)F)o3)cc2F)c2ccccc2)CC1 [Compound 11302, 4-acetyl-N-(4-(5-(difluoromethyl)-1,3,4-oxadiazol-2-yl)-2-fluorobenzyl)-N-phenylpiperazine-1-sulfonamide]	3174	32
CCC(=O)N1CCN(S(=O)(=O)N(Cc2ccc(-c3nnc(C(F)F)o3)cc2F)c2ccccc2)CC1 [Compound 11303, N-(4-(5-(difluoromethyl)-1,3,4-oxadiazol-2-yl)-2-fluorobenzyl)-N-phenyl-4-propionylpiperazine-1-sulfonamide]	3187	31
CC(C)C(=O)N1CCN(S(=O)(=O)N(Cc2ccc(-c3nnc(C(F)F)o3)cc2F)c2ccccc2)CC1 [Compound 11304, N-(4-(5-(difluoromethyl)-1,3,4-oxadiazol-2-yl)-2-fluorobenzyl)-4-isobutyryl-N-phenylpiperazine-1-sulfonamide]	1912	52
CS(=O)(=O)N1CCN(S(=O)(=O)N(Cc2ccc(-c3nnc(C(F)F)o3)cc2F)c2ccccc2)CC1 [Compound 11305, N-(4-(5-(difluoromethyl)-1,3,4-oxadiazol-2-yl)-2-fluorobenzyl)-4-(methylsulfonyl)-N-phenylpiperazine-1-sulfonamide]	2620	38
CN1CCN(S(=O)(=O)N(Cc2ccc(-c3nnc(C(F)F)o3)cc2F)c2ccccc2)CC1 [Compound 11306, N-(4-(5-(difluoromethyl)-1,3,4-oxadiazol-2-yl)-2-fluorobenzyl)-4-methyl-N-phenylpiperazine-1-sulfonamide]	4363	23
CCN1CCN(S(=O)(=O)N(Cc2ccc(-c3nnc(C(F)F)o3)cc2F)c2ccccc2)CC1 [Compound 11307, N-(4-(5-(difluoromethyl)-1,3,4-oxadiazol-2-yl)-2-fluorobenzyl)-4-ethyl-N-phenylpiperazine-1-sulfonamide]	2366	42
CC(C)N1CCN(S(=O)(=O)N(Cc2ccc(-c3nnc(C(F)F)o3)cc2F)c2ccccc2)CC1 [Compound 11308, N-(4-(5-(difluoromethyl)-1,3,4-oxadiazol-2-yl)-2-fluorobenzyl)-4-isopropyl-N-phenylpiperazine-1-sulfonamide]	2168	46
CS(=O)(=O)N1CCN(S(=O)(=O)N(Cc2ccc(-c3nnc(C(F)(F)F)o3)cc2F)c2cccc(F)c2)CC1 [Compound 11310, N-(2-fluoro-4-(5-(trifluoromethyl)-1,3,4-oxadiazol-2-yl)benzyl)-N-(3-fluorophenyl)-4-(methylsulfonyl)piperazine-1-sulfonamide]	1311	76
CC(=O)N1CCN(S(=O)(=O)N(Cc2ccc(-c3nnc(C(F)(F)F)o3)cc2F)c2cccc(F)c2)CC1 [Compound 11311, 4-acetyl-N-(2-fluoro-4-(5-(trifluoromethyl)-1,3,4-oxadiazol-2-yl)benzyl)-N-(3-fluorophenyl)piperazine-1-sulfonamide]	1188	84
CN1CCN(S(=O)(=O)N(Cc2ccc(-c3nnc(C(F)(F)F)o3)cc2F)c2cccc(F)c2)CC1 [Compound 11312, N-(2-fluoro-4-(5-(trifluoromethyl)-1,3,4-oxadiazol-2-yl)benzyl)-N-(3-fluorophenyl)-4-methylpiperazine-1-sulfonamide]	1371	73
Cl.O=S(=O)(N1CCNCC1)N(Cc1ccc(-c2nnc(C(F)F)o2)cc1F)c1cccc(F)c1 [Compound 11313, N-(4-(5-(difluoromethyl)-1,3,4-oxadiazol-2-yl)-2-fluorobenzyl)-N-(3-fluorophenyl)piperazine-1-sulfonamide Hydrochloride]	4246	24
CS(=O)(=O)N1CCN(S(=O)(=O)N(Cc2ccc(-c3nnc(C(F)F)o3)cc2F)c2cccc(F)c2)CC1 [Compound 11314, N-(4-(5-(difluoromethyl)-1,3,4-oxadiazol-2-yl)-2-fluorobenzyl)-N-(3-fluorophenyl)-4-(methylsulfonyl)piperazine-1-sulfonamide]	3061	33
CC(=O)N1CCN(S(=O)(=O)N(Cc2ccc(-c3nnc(C(F)F)o3)cc2F)c2cccc(F)c2)CC1 [Compound 11315, 4-acetyl-N-(4-(5-(difluoromethyl)-1,3,4-oxadiazol-2-yl)-2-fluorobenzyl)-N-(3-fluorophenyl)piperazine-1-sulfonamide]	3367	30
CN1CCN(S(=O)(=O)N(Cc2ccc(-c3nnc(C(F)F)o3)cc2F)c2cccc(F)c2)CC1 [Compound 11316, N-(4-(5-(difluoromethyl)-1,3,4-oxadiazol-2-yl)-2-fluorobenzyl)-N-(3-fluorophenyl)-4-methylpiperazine-1-sulfonamide]	4031	25
O=S(=O)(N1CCNCC1)N(Cc1ccc(-c2nnc(C(F)F)o2)cc1F)c1cccnc1 [Compound 11317, N-(4-(5-(difluoromethyl)-1,3,4-oxadiazol-2-yl)-2-fluorobenzyl)-N-(pyridin-3-yl)piperazine-1-sulfonamide Dihydrochloride]	1234	81
CC(=O)N1CCN(S(=O)(=O)N(Cc2ccc(-c3nnc(C(F)F)o3)cc2F)c2cccnc2)CC1 [Compound 11318, 4-acetyl-N-(4-(5-(difluoromethyl)-1,3,4-oxadiazol-2-yl)-2-fluorobenzyl)-N-(pyridin-3-yl)piperazine-1-sulfonamide]	2299	43
